Experimental data: ChEMBL document CHEMBL4257522, “Synthesis and preliminary anti-inflammatory and anti-bacterial evaluation of some diflunisal aza-analogs” (Medchemcomm, 2018)
Activity calls are given as the source filed them. The rule behind the calls is not given here.

Tests used:
Staphylococcus aureus [1] = experiment: Potentiation of geneticin-induced antibacterial activity against Staphylococcus aureus ATCC 33592 assessed as minimum modulatory concentration up to 32 uM measured after 16 hrs in presence of MIC/4 geneticin; type: functional; conditions: ATCC 33592, 16 h, read-out: MEC
Streptococcus pyogenes [2] = experiment: Potentiation of geneticin-induced antibacterial activity against Streptococcus pyogenes ATCC 14289 assessed as minimum modulatory concentration up to 32 uM measured after 16 hrs in presence of MIC/4 geneticin; type: functional; conditions: ATCC 14289, 16 h, read-out: MEC
Staphylococcus aureus [3] = experiment: Potentiation of erythromycin-induced antibacterial activity against Staphylococcus aureus ATCC 33592 assessed as minimum modulatory concentration up to 32 uM measured after 16 hrs in presence of MIC/4 erythromycin; type: functional; conditions: ATCC 33592, 16 h, read-out: MEC
Staphylococcus aureus [4] = experiment: Potentiation of methicillin-induced antibacterial activity against Staphylococcus aureus ATCC 33592 assessed as minimum modulatory concentration up to 32 uM measured after 16 hrs in presence of MIC/4 methicillin; type: functional; conditions: ATCC 33592, 16 h, read-out: MEC
Escherichia coli [5] = experiment: Toxicity in Escherichia coli ATCC 43894 up to 32 uM measured after 16 hrs; type: organism-based
Enterococcus faecium [6] = experiment: Toxicity in Enterococcus faecium ATCC 700221 up to 32 uM measured after 16 hrs; type: organism-based; conditions: in vitro
Klebsiella pneumoniae [7] = experiment: Potentiation of ciprofloxacin-induced antibacterial activity against Klebsiella pneumoniae ATCC 13883 assessed as minimum modulatory concentration up to 32 uM measured after 16 hrs in presence of MIC/4 ciprofloxacin; type: functional; conditions: ATCC 13883, 16 h, read-out: MEC
Macrophage cell line [8] = experiment: Cytotoxicity against human PBMC-differentiated macrophages treated for 24 hrs followed by compound washout and measured after 48 hrs by MTT assay; type: cell-based
Streptococcus pyogenes [9] = experiment: Toxicity in Streptococcus pyogenes ATCC 14289 up to 32 uM measured after 16 hrs; type: organism-based
Pseudomonas aeruginosa [10] = experiment: Potentiation of erythromycin-induced antibacterial activity against Pseudomonas aeruginosa ATCC BAA-2108 assessed as minimum modulatory concentration up to 32 uM measured after 16 hrs in presence of MIC/4 erythromycin; type: functional; conditions: ATCC BAA-2108, 16 h, read-out: MEC
Klebsiella pneumoniae [11] = experiment: Potentiation of tetracycline-induced antibacterial activity against Klebsiella pneumoniae ATCC 13883 assessed as minimum modulatory concentration up to 32 uM measured after 16 hrs in presence of MIC/4 tetracycline; type: functional; conditions: ATCC 13883, 16 h, read-out: MEC
Streptococcus pyogenes [12] = experiment: Potentiation of ciprofloxacin-induced antibacterial activity against Streptococcus pyogenes ATCC 14289 assessed as minimum modulatory concentration up to 32 uM measured after 16 hrs in presence of MIC/4 ciprofloxacin; type: functional; conditions: ATCC 14289, 16 h, read-out: MEC
Klebsiella pneumoniae [13] = experiment: Potentiation of geneticin-induced antibacterial activity against Klebsiella pneumoniae ATCC 13883 assessed as minimum modulatory concentration up to 32 uM measured after 16 hrs in presence of MIC/4 geneticin; type: functional; conditions: ATCC 13883, 16 h, read-out: MEC
Staphylococcus aureus [14] = experiment: Potentiation of tetracycline-induced antibacterial activity against Staphylococcus aureus ATCC 33592 assessed as minimum modulatory concentration up to 32 uM measured after 16 hrs in presence of MIC/4 tetracycline; type: functional; conditions: ATCC 33592, 16 h, read-out: MEC
Escherichia coli [15] = experiment: Potentiation of erythromycin-induced antibacterial activity against Escherichia coli ATCC 43894 assessed as minimum modulatory concentration up to 32 uM measured after 16 hrs in presence of MIC/4 erythromycin; type: functional; conditions: ATCC 43894, 16 h, read-out: MEC
Pseudomonas aeruginosa [16] = experiment: Potentiation of methicillin-induced antibacterial activity against Pseudomonas aeruginosa ATCC BAA-2108 assessed as minimum modulatory concentration up to 32 uM measured after 16 hrs in presence of MIC/4 methicillin; type: functional; conditions: ATCC BAA-2108, 16 h, read-out: MEC
Staphylococcus aureus [17] = experiment: Potentiation of ciprofloxacin-induced antibacterial activity against Staphylococcus aureus ATCC 33592 assessed as minimum modulatory concentration up to 32 uM measured after 16 hrs in presence of MIC/4 ciprofloxacin; type: functional; conditions: ATCC 33592, 16 h, read-out: MEC
Pseudomonas aeruginosa [18] = experiment: Potentiation of tetracycline-induced antibacterial activity against Pseudomonas aeruginosa ATCC BAA-2108 assessed as minimum modulatory concentration up to 32 uM measured after 16 hrs in presence of MIC/4 tetracycline; type: functional; conditions: ATCC BAA-2108, 16 h, read-out: MEC
Enterococcus faecium [19] = experiment: Potentiation of erythromycin-induced antibacterial activity against Enterococcus faecium ATCC 700221 assessed as minimum modulatory concentration up to 32 uM measured after 16 hrs in presence of MIC/4 erythromycin; type: functional; conditions: ATCC 700221, 16 h, read-out: MEC
Macrophage cell line [20] = experiment: Induction of prostaglandin production in human PBMC-differentiated macrophages after 24 hrs by ELISA; type: cell-based
Macrophage cell line [21] = experiment: Antiinflammatory activity in human PBMC-differentiated macrophages assessed as inhibition of LPS-induced prostaglandin production at 0.01 to 10 uM measured after 24 hrs by ELISA; type: functional, cell-based
Escherichia coli [22] = experiment: Potentiation of tetracycline-induced antibacterial activity against Escherichia coli ATCC 43894 assessed as minimum modulatory concentration up to 32 uM measured after 16 hrs in presence of MIC/4 tetracycline; type: functional; conditions: ATCC 43894, 16 h, read-out: MEC
Enterococcus faecium [23] = experiment: Potentiation of methicillin-induced antibacterial activity against Enterococcus faecium ATCC 700221 assessed as minimum modulatory concentration up to 32 uM measured after 16 hrs in presence of MIC/4 methicillin; type: functional; conditions: ATCC 700221, 16 h, read-out: MEC
Streptococcus pyogenes [24] = experiment: Potentiation of erythromycin-induced antibacterial activity against Streptococcus pyogenes ATCC 14289 assessed as minimum modulatory concentration up to 32 uM measured after 16 hrs in presence of MIC/4 erythromycin; type: functional; conditions: ATCC 14289, 16 h, read-out: MEC
Pseudomonas aeruginosa [25] = experiment: Potentiation of ciprofloxacin-induced antibacterial activity against Pseudomonas aeruginosa ATCC BAA-2108 assessed as minimum modulatory concentration up to 32 uM measured after 16 hrs in presence of MIC/4 ciprofloxacin; type: functional; conditions: ATCC BAA-2108, 16 h, read-out: MEC
Streptococcus pyogenes [26] = experiment: Potentiation of methicillin-induced antibacterial activity against Streptococcus pyogenes ATCC 14289 assessed as minimum modulatory concentration up to 32 uM measured after 16 hrs in presence of MIC/4 methicillin; type: functional; conditions: ATCC 14289, 16 h, read-out: MEC
Enterococcus faecium [27] = experiment: Potentiation of tetracycline-induced antibacterial activity against Enterococcus faecium ATCC 700221 assessed as minimum modulatory concentration up to 32 uM measured after 16 hrs in presence of MIC/4 tetracycline; type: functional; conditions: ATCC 700221, 16 h, read-out: MEC
Enterococcus faecium [28] = experiment: Potentiation of geneticin-induced antibacterial activity against Enterococcus faecium ATCC 700221 assessed as minimum modulatory concentration up to 32 uM measured after 16 hrs in presence of MIC/4 geneticin; type: functional; conditions: ATCC 700221, 16 h, read-out: MEC
Escherichia coli [29] = experiment: Potentiation of ciprofloxacin-induced antibacterial activity against Escherichia coli ATCC 43894 assessed as minimum modulatory concentration up to 32 uM measured after 16 hrs in presence of MIC/4 ciprofloxacin; type: functional; conditions: ATCC 43894, 16 h, read-out: MEC
Klebsiella pneumoniae [30] = experiment: Toxicity in Klebsiella pneumoniae ATCC 13883 up to 32 uM measured after 16 hrs; type: organism-based
Macrophage cell line [31] = experiment: Induction of IL-8 production in human PBMC-differentiated macrophages after 24 hrs by ELISA; type: cell-based
Staphylococcus aureus [32] = experiment: Toxicity in Staphylococcus aureus ATCC 33592 up to 32 uM measured after 16 hrs; type: organism-based
Macrophage cell line [33] = experiment: Induction of IL-1beta production in human PBMC-differentiated macrophages after 24 hrs by ELISA; type: cell-based
Streptococcus pyogenes [34] = experiment: Potentiation of tetracycline-induced antibacterial activity against Streptococcus pyogenes ATCC 14289 assessed as minimum modulatory concentration up to 32 uM measured after 16 hrs in presence of MIC/4 tetracycline; type: functional; conditions: ATCC 14289, 16 h, read-out: MEC

O=C(O)c1cc(O)cnc1-c1ccccc1
minimal effective concentration (Staphylococcus aureus [1]): 16 µM
minimal effective concentration (Streptococcus pyogenes [2]): 2 µM
minimal effective concentration (Staphylococcus aureus [3]): 4 µM
minimal effective concentration (Staphylococcus aureus [4]): 8 µM
Activity (Escherichia coli [5]): Non-Toxic
Activity (Enterococcus faecium [6]): Non-Toxic
minimal effective concentration (Klebsiella pneumoniae [7]): > 32 µM
IC50 (Macrophage cell line [8]): 87.9 µM
Activity (Streptococcus pyogenes [9]): Non-Toxic
minimal effective concentration (Pseudomonas aeruginosa [10]): 8 µM
minimal effective concentration (Klebsiella pneumoniae [11]): > 32 µM
minimal effective concentration (Streptococcus pyogenes [12]): > 32 µM
minimal effective concentration (Klebsiella pneumoniae [13]): > 32 µM
minimal effective concentration (Staphylococcus aureus [14]): 1 µM
minimal effective concentration (Escherichia coli [15]): > 32 µM
minimal effective concentration (Pseudomonas aeruginosa [16]): 16 µM
minimal effective concentration (Staphylococcus aureus [17]): > 32 µM
minimal effective concentration (Pseudomonas aeruginosa [18]): > 32 µM
minimal effective concentration (Enterococcus faecium [19]): 2 µM
Activity (Macrophage cell line [20]): Non-Toxic
inhibition (Macrophage cell line [21]): inactive
minimal effective concentration (Escherichia coli [22]): > 32 µM
minimal effective concentration (Enterococcus faecium [23]): 2 µM
minimal effective concentration (Streptococcus pyogenes [24]): 4 µM
minimal effective concentration (Pseudomonas aeruginosa [25]): 8 µM
minimal effective concentration (Streptococcus pyogenes [26]): 1 µM
minimal effective concentration (Enterococcus faecium [27]): 4 µM
minimal effective concentration (Enterococcus faecium [28]): 8 µM
minimal effective concentration (Escherichia coli [29]): > 32 µM
Activity (Klebsiella pneumoniae [30]): Non-Toxic
Activity (Macrophage cell line [31]): Non-Toxic
Activity (Staphylococcus aureus [32]): Non-Toxic
Activity (Macrophage cell line [33]): Non-Toxic
minimal effective concentration (Streptococcus pyogenes [34]): 2 µM
